Data taken from patent US4483833A, “Process for selective removal of H2 S from mixtures containing H2 2 with heterocyclic tertiary aminoalkanols” (Exxon Research & Engineering Co., priority 1982, dated 1984).
Read-outs that look alike come from different tables or passages of the source.

Experiments:
[1] = Boiling point (volatility) of aminoalkanol; type: physicochemical
Source text: Also, to insure operational efficiency with minimal losses of the amino compound, the amino compound should have a relatively low volatility. […]
It can be seen that in each case the boiling points increase relative to the respective parent compound while the pKa remains constant.

pKa of aminoalkanol = type: physicochemical; settings: at 20° C.
[2] = 15N NMR chemical shift as a means of determining selectivity to H2S removal; type: physicochemical; settings: 90% by wt. amine in 10% by wt. D2O, 35° C.; liquid ammonia at 25° C. as zero reference
Procedure: Another means for determining whether an amino compound is selective to H2 S removal is by measuring its 15N nuclear magnetic resonance (NMR) chemical shift. […] D2 O at 35° C. is measured by a spectrometer using liquid (neat) ammonia at 25° C. as a zero reference value. For example, N-(2-hydroxyethoxyethyl)pyrrolidine (HEEP) has a ^15 N NMR chemical shift value of δ+53.2 ppm whereas diethylmonoethanolamine (DEAE), N-methyl-N-tertiarybutylaminoethoxyethanoland methyldiethanolamine (MDEA) have ^15 N NMR chemical shift values of δ+43.7, δ+45.0 and δ+27.4 ppm, respectively.

[3] = pressure not stated; background; cited from earlier work

OCCOCCCN1CCCC1
boiling point ([1]; at 20 mm): 140 °C | pKa (pKa of aminoalkanol): 10.20

OCCCN1CCCC1 [drawing 3]
boiling point ([1]; at 13 mm): 101 °C | pKa (pKa of aminoalkanol): 10.20

OCCCCN1CCCC1 [HBP, N-(4-hydroxybutyl) pyrrolidine]
boiling point ([1]; at 2 mm): 95 °C | pKa (pKa of aminoalkanol): 10.21

OCCOCCN1CCCC1 [HEEP, N-(2-hydroxyethoxyethyl)pyrrolidine]
boiling point ([1]; at 5 mm): 110 °C | 15N NMR chemical shift (δ+) [2]: 53.2 ppm | pKa (pKa of aminoalkanol): 9.95

CC(O)COC(C)CN1CCCC1 (stereo not drawn)
boiling point ([1]; at 1 mm): 100 °C | pKa (pKa of aminoalkanol): 10.20

OCCN1CCCC1 [HEP, N-hydroxyethylpyrrolidine]
boiling point ([1]; at 13 mm): 80 °C | pKa (pKa of aminoalkanol): 9.95

OCCCN1CCCC1 [HPP, N-(3-hydroxypropyl)pyrrolidine]
boiling point ([1]; at 13 mm): 103 °C | pKa (pKa of aminoalkanol): 10.21

CC(CCO)N1CCCC1 (stereo not drawn) [H2BP, N-(4-hydroxy-2-butyl)pyrrolidine]
boiling point ([1]; at 7 mm): 98 °C | pKa (pKa of aminoalkanol): 10.25

CC(O)CN1CCCC1 (stereo not drawn)
boiling point ([1]; at 14 mm): 75 °C | pKa (pKa of aminoalkanol): 10.20

CN1CCCCC1CCO (stereo not drawn) [MHEPi, N-methyl-2-hydroxyethylpiperidine]
boiling point ([1]; at 760 mm): 233 °C | pKa (pKa of aminoalkanol): 9.90

OCCCN1CCCCC1 [HPPi, N-(3-hydroxypropyl)piperidine]
boiling point ([1]; at 5 mm): 97 °C | pKa (pKa of aminoalkanol): 10.2

CCN(CC)CCO [DEAE, diethylmonoethanolamine]
boiling point [3]: 161 °C
